≈ marks a conversion by molar mass, not a printed value. Read-outs that look alike come from different tables or passages of the source.
Key:
[1] = Titration of HPBS with hydrochloric acid or sulfuric acid (acid requirements, pKa, precipitation); assay type: physicochemical
Protocol: Acid requirements for the precipitation of 2-(2-hydroxyphenyl)benzenesulfinic acid were determined via titration with hydrochloric acid or sulfuric acid for solutions prepared from synthetic HPBS or HPBS derived from the biocatalytic oxidation of DBT. The titrations were conducted using standard methods.
FIG. 2 presents titration curves from 3 experiments. In experiment 1, a 110 mM solution of HPBS at pH 13 was treated with aqueous HCl. The HPBS phenolic group was titrated first, with a pKa of about 10.5. Precipitation of solid 2-(2-hydroxyphenyl)benzenesulfinic acid began at about pH 2, as the sulfinate group was protonated.
In experiment 2, a 110 mM HPBS solution equilibrated with a middle distillate (or diesel fuel) at 30° C. and pH 6.6 was titrated with HCl. The middle distillate was added to determine if the presence of middle distillate components have any effect on the protonation of HPBS.
In experiment 3, a 75 mM solution of HPBS prepared via the biocatalytic oxidation of DBT was titrated with sulfuric acid.

[2] = Precipitation of 2-(2-hydroxyphenyl)benzenesulfinic acid from acidified HPBS solution; supernatant concentration by HPLC and redissolution; assay type: physicochemical
Protocol: The pH of a concentrated (>50 mM) HPBS solution was adjusted to 1.2 at ambient temperature with concentrated sulfuric acid. An amorphous white precipitate formed rapidly and the supernatant HPBS concentration, as determined by HPLC, dropped to the range of 5-8 μM.

[3] = Solubility of 2-(2-hydroxyphenyl)benzenesulfinic acid and DBTSi in liquid hydrocarbons; assay type: physicochemical
Excerpt: Solubility of 2-(2-hydroxyphenyl)benzenesulfinic acid and DBTSi in liquid hydrocarbons
The solubilities of 2-(2-hydroxyphenyl)benzenesulfinic acid and DBTSi in liquid hydrocarbons such as gas-oil or vacuum-gas-oil in an important parameter in process design as such refinery streams represent ultimate disposal sites for HPBS.

[4] = comparison value for benzenesulfinic acid; cited from earlier work

O=S(O)c1ccccc1-c1ccccc1O [2-(2-hydroxyphenyl)benzenesulfinic acid]
pH at which precipitation of solid began ([1]; 110 mM HPBS titrated with aqueous HCl): ~2 | solubility of precipitate in organic solvents, such as toluene ([2]; organic solvents, such as toluene): only sparingly soluble | dissolution of precipitate in water ([2]; water at neutral pH): dissolved rapidly | solubility in TMD ([3]; ambient temperature, TMD, x-ray fluorescence detection): below the limits of detection | solubility in hexadecane ([3]; ambient temperature, hexadecane, x-ray fluorescence detection): below the limits of detection | solubility in toluene ([3]; ambient temperature, toluene, x-ray fluorescence detection): below the limits of detection | solubility in gas-oil ([3]; gas-oil, 50° C.): no detectable solubility | solubility in middle distillate ([3]; middle distillate, 50° C.): no detectable solubility

O=S(O)c1ccccc1 [benzenesulfinic acid]
pKa [4]: 1.2

O=S1Oc2ccccc2-c2ccccc21 (centres unmarked) [DBTSi, dibenzothiophene sultine]
solubility in gas-oil [3]: ca. 1.4% | solubility in hexadecane [3]: 0.33 % by weight | solubility in liquid hydrocarbons, in words [3]: substantially more soluble in liquid hydrocarbons | solubility in middle distillate [3]: ca. 1% | solubility in vacuum gas oil [3]: 4.3% | temperature dependence of solubility in the hydrocarbon [3]: increased with increasing temperature

O=S(O)c1ccccc1-c1ccccc1O [HPBS, 2-(2'-hydroxyphenyl)benzenesulfinate]
pKa ([1]; 110 mM HPBS at pH 13 titrated with aqueous HCl, read-out: pKa of phenolic group): ~10.5 | solubility ([2]; water, pH 1.2, ambient temperature, concentrated (>50 mM) HPBS, sulfuric acid, HPLC, read-out: supernatant HPBS concentration after precipitation): 5 to 8 µM (≈ 1.17 to 1.87 µg/mL)
